Measurements from publication PMC8379256, “A xanthene derivative, DS20060511, attenuates glucose intolerance by inducing skeletal muscle-specific GLUT4 translocation in mice” (Communications Biology, 2021).
“And” between values parts separate entries of the source, which are not always exact repeats. Equal entries are not always repeated.

Tested on: C57BL/6 mice
Experiment: Indirect calorimetry and exercise endurance under stepwise treadmill running
Assay type: in vivo, mouse
Conditions: for Fat oxodation, sum over interval / Gluocse oxdation, sum over interval / Fat oxodation / Gluocse oxdation / CO2 Production (VCO2) / O2 Consumption (VO2) / Respiratory quotient: 30 mg/kg; for Fat oxodation, sum over interval / Gluocse oxdation, sum over interval / Fat oxodation / Gluocse oxdation: individual mice 1-7; for CO2 Production (VCO2) / O2 Consumption (VO2) / Respiratory quotient: DS20060511 30 mg/kg, individual mice 1-7, Fig. 5a
Procedure: The mice were acclimatized to the treadmill by allowing them to run at 10 m min^−1 for 10 min on the day before the test. On the day of the test, the mice received oral administration of 30 mg kg^−1 of DS20060511 or vehicle 15 min before they were made to run. The treadmill was started at a velocity of 10 m min^−1, with the speed increased stepwise by 2 m min^−1 every 3 min, to assess the exercise endurance capacity as described previously. Measurements of the oxygen consumption (VO2) and exhaled carbon dioxide (VCO2) under treadmill running were conducted with the ARCO-2000 magnetic-type mass spectrometric calorimeter (ARCO System, Kashiwa, Japan) connected to the treadmill chamber (MB-2000, ARCO System). The RER was calculated as the VCO2/VO2 ratio and the substrate utilization rates were calculated using Frayn’s formula[51]: rate of glucose oxidation = 4.585VCO2 − 3.226VO2; rate of fat oxidation = 1.695VO2 − 1.701VCO2. The exercise endurance capacity under treadmill running was determined by measuring the time from the start to the time until the mice ceased to run because of exhaustion, which was defined as remaining on the shocker plate for more than 10 sec. Immediately after the exercise, the blood glucose and lactate levels were measured using Glutest Every and Lactate Pro2 (ARKRAY, Kyoto, Japan), respectively, in blood samples collected from the tail vein.

[1] = 30 mg kg−1 po vs vehicle, treadmill running

Question: Which “blood lactate levels after exercise” value (30 mg kg−1 po vs vehicle) does the source give for COc1ccc2c(C)c(C(=O)O)ccc2c1C1C2=C(CC(C)(C)CC2=O)OC2=C1C(=O)CC(C)(C)C2 [DS20060511] here?
Answer: comparable between the two groups

Question: What about the exercise endurance capacity (30 mg kg−1 po vs vehicle, stepwise treadmill) of the same compound?
Answer: comparable between the two groups

Question: And the estimated glucose oxidation [1]?
Answer: significantly higher

Question: And the fat oxidation [1]?
Answer: significantly lower

Question: What about the “respiratory exchange ratio (RER)” value [1] of the same compound?
Answer: relatively higher

Question: And the “blood glucose levels after exercise” value (30 mg kg−1 po, after treadmill running)?
Answer: decreased significantly after exercise

Question: What about the “Fat oxodation, sum over interval” value (0-10 min) of the same compound?
Answer: 427.8 mg/min/kg and 293.6 mg/min/kg and 420.7 mg/min/kg and 305.9 mg/min/kg and 318.6 mg/min/kg and 347.3 mg/min/kg and 349.7 mg/min/kg

Question: What about the “Gluocse oxdation, sum over interval” value (0-10 min) of the same compound?
Answer: 257.7 mg/min/kg and 558.0 mg/min/kg and 414.2 mg/min/kg and 313.5 mg/min/kg and 385.3 mg/min/kg and 424.4 mg/min/kg and 413.9 mg/min/kg

Question: And the “Fat oxodation, sum over interval” value (10-20 min)?
Answer: 395.5 mg/min/kg and 242.6 mg/min/kg and 385.0 mg/min/kg and 272.2 mg/min/kg and 293.7 mg/min/kg and 348.5 mg/min/kg and 252.4 mg/min/kg

Question: What about the “Gluocse oxdation, sum over interval” value (10-20 min) of the same compound?
Answer: 391.9 mg/min/kg and 729.7 mg/min/kg and 425.7 mg/min/kg and 359.9 mg/min/kg and 949.6 mg/min/kg and 631.1 mg/min/kg and 663.2 mg/min/kg

Question: And the “Fat oxodation, sum over interval” value (20-30 min)?
Answer: 322.9 mg/min/kg and 234.0 mg/min/kg and 346.7 mg/min/kg and 272.4 mg/min/kg and 262.3 mg/min/kg and 313.5 mg/min/kg and 371.5 mg/min/kg

Question: What about the “Gluocse oxdation, sum over interval” value (20-30 min) of the same compound?
Answer: 572.7 mg/min/kg and 770.3 mg/min/kg and 804.1 mg/min/kg and 468.4 mg/min/kg and 807.5 mg/min/kg and 860.4 mg/min/kg and 944.3 mg/min/kg

Question: And the Fat oxodation (2 min)?
Answer: 49.1 mg/min/kg and 32.5 mg/min/kg and 45.5 mg/min/kg and 29.3 mg/min/kg and 25.5 mg/min/kg and 31.7 mg/min/kg and 38.3 mg/min/kg

Question: What about the Gluocse oxdation (2 min) of the same compound?
Answer: 22.8 mg/min/kg and 54.5 mg/min/kg and 47.8 mg/min/kg and 35.8 mg/min/kg and 26.2 mg/min/kg and 31.5 mg/min/kg and 33.5 mg/min/kg

Question: What about the Fat oxodation (3 min) of the same compound?
Answer: 47.1 mg/min/kg and 30.9 mg/min/kg and 42.8 mg/min/kg and 30.0 mg/min/kg (2×) and 34.1 mg/min/kg and 36.3 mg/min/kg

Question: And the Gluocse oxdation (3 min)?
Answer: 23.3 mg/min/kg and 55.7 mg/min/kg and 37.4 mg/min/kg and 36.0 mg/min/kg and 29.4 mg/min/kg and 34.4 mg/min/kg and 37.0 mg/min/kg

Question: What about the Fat oxodation (4 min) of the same compound?
Answer: 45.2 mg/min/kg and 28.8 mg/min/kg and 42.6 mg/min/kg and 34.0 mg/min/kg and 60.9 mg/min/kg and 33.7 mg/min/kg and 35.2 mg/min/kg

Question: And the Gluocse oxdation (4 min)?
Answer: 24.4 mg/min/kg and 56.1 mg/min/kg and 36.3 mg/min/kg and 34.1 mg/min/kg and 30.0 mg/min/kg and 35.7 mg/min/kg and 43.6 mg/min/kg

Question: And the Fat oxodation (5 min)?
Answer: 42.0 mg/min/kg (2×) and 29.8 mg/min/kg and 30.0 mg/min/kg and 28.6 mg/min/kg and 36.6 mg/min/kg and 31.5 mg/min/kg

Question: And the Gluocse oxdation (5 min)?
Answer: 25.9 mg/min/kg and 58.5 mg/min/kg and 35.2 mg/min/kg and 29.7 mg/min/kg and 36.7 mg/min/kg and 43.4 mg/min/kg and 40.9 mg/min/kg

Question: What about the Fat oxodation (6 min) of the same compound?
Answer: 40.6 mg/min/kg and 28.1 mg/min/kg (2×) and 39.9 mg/min/kg and 29.8 mg/min/kg and 36.7 mg/min/kg and 34.9 mg/min/kg

Question: What about the Gluocse oxdation (6 min) of the same compound?
Answer: 27.6 mg/min/kg and 62.3 mg/min/kg and 41.7 mg/min/kg and 27.0 mg/min/kg and 29.5 mg/min/kg and 41.2 mg/min/kg and 41.6 mg/min/kg

Question: What about the Fat oxodation (7 min) of the same compound?
Answer: 44.6 mg/min/kg and 27.7 mg/min/kg and 40.8 mg/min/kg and 31.0 mg/min/kg and 29.7 mg/min/kg and 36.4 mg/min/kg and 33.0 mg/min/kg

Question: And the Gluocse oxdation (7 min)?
Answer: 25.8 mg/min/kg and 57.6 mg/min/kg and 41.7 mg/min/kg and 27.6 mg/min/kg and 31.8 mg/min/kg and 41.2 mg/min/kg and 41.5 mg/min/kg

Question: What about the Fat oxodation (8 min) of the same compound?
Answer: 40.5 mg/min/kg and 29.5 mg/min/kg and 42.0 mg/min/kg and 36.5 mg/min/kg and 31.2 mg/min/kg and 35.1 mg/min/kg and 53.1 mg/min/kg

Question: What about the Gluocse oxdation (8 min) of the same compound?
Answer: 25.7 mg/min/kg and 46.1 mg/min/kg and 38.7 mg/min/kg and 30.3 mg/min/kg and 43.2 mg/min/kg and 42.8 mg/min/kg and 44.9 mg/min/kg

Question: And the Fat oxodation (9 min)?
Answer: 38.5 mg/min/kg (2×) and 26.8 mg/min/kg and 37.4 mg/min/kg and 31.8 mg/min/kg and 32.4 mg/min/kg and 27.0 mg/min/kg

Question: What about the Gluocse oxdation (9 min) of the same compound?
Answer: 33.9 mg/min/kg and 53.4 mg/min/kg and 38.5 mg/min/kg and 22.6 mg/min/kg and 54.7 mg/min/kg and 55.4 mg/min/kg and 48.5 mg/min/kg

Question: What about the Fat oxodation (10 min) of the same compound?
Answer: 34.8 mg/min/kg and 27.2 mg/min/kg and 41.0 mg/min/kg and 29.8 mg/min/kg and 30.4 mg/min/kg and 34.2 mg/min/kg and 23.3 mg/min/kg

Question: What about the Gluocse oxdation (10 min) of the same compound?
Answer: 30.0 mg/min/kg and 56.7 mg/min/kg and 39.2 mg/min/kg and 35.9 mg/min/kg and 69.2 mg/min/kg and 58.5 mg/min/kg and 43.5 mg/min/kg

Question: What about the Fat oxodation (11 min) of the same compound?
Answer: 31.8 mg/min/kg and 26.7 mg/min/kg and 43.5 mg/min/kg and 30.9 mg/min/kg and 23.0 mg/min/kg and 34.9 mg/min/kg and 24.3 mg/min/kg

Question: What about the Gluocse oxdation (11 min) of the same compound?
Answer: 26.2 mg/min/kg and 54.7 mg/min/kg and 51.9 mg/min/kg and 29.4 mg/min/kg and 70.2 mg/min/kg and 68.8 mg/min/kg and 48.6 mg/min/kg

Question: And the Fat oxodation (12 min)?
Answer: 38.6 mg/min/kg and 27.7 mg/min/kg and 39.9 mg/min/kg and 32.1 mg/min/kg and 28.8 mg/min/kg and 35.4 mg/min/kg and 26.2 mg/min/kg

Question: What about the Gluocse oxdation (12 min) of the same compound?
Answer: 31.9 mg/min/kg and 64.6 mg/min/kg and 37.7 mg/min/kg and 26.9 mg/min/kg and 70.4 mg/min/kg and 57.6 mg/min/kg and 47.4 mg/min/kg

Question: What about the Fat oxodation (13 min) of the same compound?
Answer: 43.1 mg/min/kg and 20.9 mg/min/kg and 41.6 mg/min/kg and 25.9 mg/min/kg and 29.8 mg/min/kg and 35.1 mg/min/kg and 26.2 mg/min/kg

Question: And the Gluocse oxdation (13 min)?
Answer: 26.0 mg/min/kg and 67.8 mg/min/kg and 36.1 mg/min/kg and 27.0 mg/min/kg and 75.8 mg/min/kg and 55.4 mg/min/kg and 71.1 mg/min/kg

Question: What about the Fat oxodation (14 min) of the same compound?
Answer: 40.8 mg/min/kg and 24.1 mg/min/kg and 37.9 mg/min/kg and 28.8 mg/min/kg and 31.7 mg/min/kg and 36.1 mg/min/kg and 24.4 mg/min/kg

Question: And the Gluocse oxdation (14 min)?
Answer: 35.1 mg/min/kg and 58.5 mg/min/kg and 33.2 mg/min/kg and 25.3 mg/min/kg and 81.8 mg/min/kg and 57.9 mg/min/kg and 62.6 mg/min/kg

Question: What about the Fat oxodation (15 min) of the same compound?
Answer: 37.9 mg/min/kg and 23.3 mg/min/kg and 38.6 mg/min/kg and 27.4 mg/min/kg and 30.7 mg/min/kg and 40.7 mg/min/kg and 24.3 mg/min/kg

Question: And the Gluocse oxdation (15 min)?
Answer: 36.9 mg/min/kg and 60.6 mg/min/kg and 34.7 mg/min/kg and 16.1 mg/min/kg and 95.7 mg/min/kg and 52.2 mg/min/kg and 66.3 mg/min/kg

Question: And the Fat oxodation (16 min)?
Answer: 43.4 mg/min/kg and 24.7 mg/min/kg

Question: And the Gluocse oxdation (16 min)?
Answer: 35.4 mg/min/kg and 77.5 mg/min/kg

Question: What about the “CO2 Production (VCO2)” value (2 min) of the same compound?
Answer: 92.8 mL/min/kg and 70.8 mL/min/kg and 81.2 mL/min/kg and 81.9 mL/min/kg and 71.5 mL/min/kg and 71.3 mL/min/kg and 73.6 mL/min/kg

Question: What about the “O2 Consumption (VO2)” value (2 min) of the same compound?
Answer: 108.3 ml/min/kg and 99.5 ml/min/kg and 86.9 ml/min/kg and 90.3 ml/min/kg (2×) and 96.4 ml/min/kg and 122.1 ml/min/kg

Question: And the Respiratory quotient (2 min)?
Answer: 0.76 (2×) and 0.78 and 0.75 and 0.82 (2×) and 0.79

Question: What about the “CO2 Production (VCO2)” value (3 min) of the same compound?
Answer: 92.0 mL/min/kg and 71.1 mL/min/kg and 77.7 mL/min/kg and 83.7 mL/min/kg and 70.1 mL/min/kg and 74.8 mL/min/kg and 73.0 mL/min/kg

Question: What about the “O2 Consumption (VO2)” value (3 min) of the same compound?
Answer: 103.2 mL/min/kg and 101.7 mL/min/kg and 88.1 mL/min/kg and 95.2 mL/min/kg and 94.7 mL/min/kg and 120.2 mL/min/kg and 89.5 mL/min/kg

Question: And the Respiratory quotient (3 min)?
Answer: 0.77 (2×) and 0.79 (2×) and 0.75 and 0.82 and 0.80

Question: What about the “CO2 Production (VCO2)” value (4 min) of the same compound?
Answer: 90.3 mL/min/kg and 73.1 mL/min/kg and 78.3 mL/min/kg and 89.7 mL/min/kg and 70.1 mL/min/kg and 72.9 mL/min/kg and 72.1 mL/min/kg

Question: And the “O2 Consumption (VO2)” value (4 min)?
Answer: 103.7 ml/min/kg and 110.0 ml/min/kg and 106.3 ml/min/kg and 93.1 ml/min/kg (2×) and 117.2 ml/min/kg and 90.4 ml/min/kg

Question: And the Respiratory quotient (4 min)?
Answer: 0.77 (2×) and 0.81 (2×) and 0.75 and 0.66 and 0.78
